Data as given in patent US4370326A, “Cephem compounds and composition” (Fujisawa Pharmaceutical Co., Ltd., priority 1977, dated 1983).
Values after ≈ are worked out from the molar mass of the structure shown.

What was measured:
Test in all cases: In vitro antibacterial activity, two-fold agar-plate dilution method
Assay type in all cases: cell-based
Klebsiella aerogenes 417 = conditions: heart infusion agar, 37° C., 20 hours, 10^8 viable cells per ml, read-out: minimal inhibitory concentration (MIC)
Procedure: (§1) In vitro antibacterial activity was determined by the two-fold agar-plate dilution method as described below. One loopful of an overnight culture of each test strain in Trypticase-soy broth (10^8 viable cells per ml.) was streaked on heart infusion agar (HI-agar) containing graded concentrations of antibiotics, and the minimal inhibitory concentration (MIC) was expressed in terms of μg/ml. after incubation at 37° C. for 20 hours. [drawing 15]

Escherichia coli 324 = conditions: heart infusion agar, 37° C., 20 hours, 10^8 viable cells per ml, read-out: minimal inhibitory concentration (MIC)
Procedure: as §1

Proteus vulgaris 616 = conditions: heart infusion agar, 37° C., 20 hours, 10^8 viable cells per ml, read-out: minimal inhibitory concentration (MIC)
Procedure: as §1

Proteus mirabilis 520 = conditions: heart infusion agar, 37° C., 20 hours, 10^8 viable cells per ml, read-out: minimal inhibitory concentration (MIC)
Procedure: as §1

Salmonella enteritidis = conditions: Salmonella enterica, heart infusion agar, 37° C., 20 hours, 10^8 viable cells per ml, read-out: minimal inhibitory concentration (MIC)
Procedure: as §1

Row | Structure (SMILES) | MIC (Klebsiella aerogenes 417) [µg/mL] | MIC (Escherichia coli 324) [µg/mL] | MIC (Proteus vulgaris 616) [µg/mL] | MIC (Proteus mirabilis 520) [µg/mL] | MIC (Salmonella enteritidis) [µg/mL]
1 | Nc1nc(C(=O)C(=O)NC2C(=O)N3C(C(=O)O)=CCSC23)cs1 (centres unmarked) [Compound 1] | 0.1 (≈ 0.282 µM) | 1.56 (≈ 4.4 µM) | 12.5 (≈ 35.3 µM) | 0.78 (≈ 2.2 µM) | 1.56 (≈ 4.4 µM)
2 | Nc1nc(CC(=O)NC2C(=O)N3C(C(=O)O)=CCSC23)cs1 (centres unmarked) [Compound 2] | 0.2 (≈ 0.588 µM) | 1.56 (≈ 4.58 µM) | 6.25 (≈ 18.4 µM) | 0.39 (≈ 1.15 µM) | 1.56 (≈ 4.58 µM)
3 | Nc1nc(C(N)C(=O)NC2C(=O)N3C(C(=O)O)=CCSC23)cs1 (centres unmarked) [Compound 3] | 0.39 (≈ 1.1 µM) | 0.78 (≈ 2.19 µM) | 1.56 (≈ 4.39 µM) | 0.78 (≈ 2.19 µM) | 3.13 (≈ 8.81 µM)
4 | Nc1nc(C(O)C(=O)NC2C(=O)N3C(C(=O)O)=CCSC23)cs1 (centres unmarked) [Compound 4] | 0.78 (≈ 2.19 µM) | 1.56 (≈ 4.38 µM) | 12.5 (≈ 35.1 µM) | 1.56 (≈ 4.38 µM) | 3.13 (≈ 8.78 µM)
